Results from article PMC6263544, “Second-generation pterocarpanquinones: synthesis and antileishmanial activity” (The Journal of Venomous Animals and Toxins Including …, 2018).
Entries after “also recorded” stand apart in the source; their conditions may differ.

Experiments:
[1] = tested on: promastigotes of L. infantum; assay: Mitochondrial membrane potential (ΔΨm) test (rhodamine 123, flow cytometry); format: cell-based, Leishmania infantum; settings: for Δѱm index of variation (IV): Rh123, IV = (MT − MC)/MC, mean ± SD
Method: To determine the effect of pterocarpanquinones 2a-f on the ΔΨm, promastigotes of L. infantum (5 × 10^6 cells/mL) were incubated in the presence of 0–5 μM of derivatives at 26 °C. After 4 h, the parasites were incubated for 15 min with 10 μg/mL rhodamine 123 (Rh123) (Sigma-Aldrich). Data acquisition of 10,000 events and analysis were performed using the flow cytometer FACSCalibur (Becton-Dickinson, Rutherford, NJ, USA). Alteration in ΔΨm was quantified using an index of variation (IV) obtained by the eq. IV = (MT − MC)/MC [24], where MT is the median of the fluorescence of Rh123 for treated parasites and MC is the median of the fluorescence of the control parasites. Negative IV values correspond to depolarization of the mitochondrial membrane. The FCCP (Carbonyl cyanide-p-Trifluoromethoxyphenylhydrazone) 20 μM was used as positive control.

[2] = tested on: L. infantum promastigotes; assay: Antipromastigote test, L. infantum; format: cell-based, Leishmania infantum; settings: for IC50: Leishmania infantum, 72 h, resazurin, Mean ± SEM, read-out: L. infantum Promastigote IC50
Method: Leishmania infantum (MHOM/MA67ITMAP263) parasites were isolated from female BALB/c mice infected and cultured at 26 °C in Schneider’s insect medium supplemented with 20% HIFCS, streptomycin at 100 μg/ml and penicillin at 100 U/ml. New cultures of promastigotes were obtained from infected Balb/C mice.
(§1) Leishmania promastigotes of three species were incubated in 96-well plates (Nunc, Roskilde, Denmark) under the conditions described above in either the absence or presence of different concentrations of pterocarpanquinones 2a-f (0-100 μM). A stock solution of the compounds was prepared at 50 mM in dimethylsulfoxide (Sigma Aldrich). The maximum solvent concentration used in the assays was 0.4% in a final volume per well of 200 μL. The cultures were initiated with 1.0 × 10^6 cells/ml and maintained at 26 °C for 72 h. Inhibition of parasitic growth was determined by cell viability indicator, resazurin [23], with excitation λ = 560 nm and emission λ = 590 nm or the number of parasites was then counted in a Neubauer chamber (experiments with L. braziliensis). The 50% inhibitory concentration (IC50) was determined by nonlinear regression analysis in the software GraphPad Prism 5.

[3] = tested on: intracellular amastigotes of L. amazonensis; assay: Antiamastigote test, L. amazonensis in mouse peritoneal macrophages; format: cell-based, Leishmania amazonensis; settings: for L. amazonensis SI (Selective Index): CC50 in Macrophages/IC50 in intracellular amastigotes; for IC50: Leishmania amazonensis, Peritoneal macrophage, intracellular amastigotes in mouse peritoneal macrophages, 72 h, infection index, Mean ± SEM, read-out: L. amazonensis Amastigote IC50
Method: (§2) For the test against intracellular amastigotes of L. amazonensis and L. infantum, resident peritoneal macrophages (swiss mouse) were plated in RPMI (Sigma-Aldrich) at 2 × 10^6/mL (0.4 mL/well) in Lab-Tek eight-chamber slides (Nunc, Roskilde, Denmark) and incubated at 37 °C in 5% CO2 for 1 h. Stationary-phase L. amazonensis and L. infantum promastigotes were added at respective parasite/macrophage ratios of 3:1 and 5:1 for 4 h. After washing three times, pterocarpanquinones 2a-f at various concentrations were added for 72 h. Next, the slides were stained using an Instant Prov hematological dye system (Newprov, Curitiba, Brazil). The number of amastigotes was determined by counting at least 100 macrophages per sample.
(§3) The results were expressed as an infection index (% infected cells×number of amastigotes/total number of macrophages). The 50% inhibitory concentration (IC50) was determined by nonlinear regression analysis in the software GraphPad Prism 5.

[4] = tested on: intracellular amastigotes of L. infantum; assay: Antiamastigote test, L. infantum in mouse peritoneal macrophages; format: cell-based, Leishmania infantum; settings: for IC50: Leishmania infantum, Peritoneal macrophage, intracellular amastigotes in mouse peritoneal macrophages, infection index, Mean ± SEM, read-out: L. infantum Amastigote IC50; for L. infantum SI (Selective Index): CC50 in Macrophages/IC50 in intracellular amastigotes
Method: as §2, §3

[5] = tested on: L. braziliensis promastigotes; assay: Antipromastigote test, L. braziliensis; format: cell-based; settings: for IC50: Leishmania braziliensis, 72 h, parasites counted in Neubauer chamber, Mean ± SEM, read-out: L. braziliensis Promastigote IC50
Method: L. braziliensis (MCAN/BR/98/R619) was routinely isolated from hamster lesions and maintained as promastigotes in Schneider’s insect medium containing 20% HIFCS and 100 μg/ml gentamicin (Schering-Plough). New cultures of promastigotes were obtained from an infected hamster.
as §1

[6] = tested on: L. amazonensis promastigotes; assay: Antipromastigote test, L. amazonensis; format: cell-based, Leishmania amazonensis; settings: for IC50: Leishmania amazonensis, 72 h, resazurin, Mean ± SEM, read-out: L. amazonensis Promastigote IC50
Method: New cultures of promastigotes were obtained from infected Balb/C mice. […] A stock solution of the compounds was prepared at 50 mM in dimethylsulfoxide (Sigma Aldrich). The maximum solvent concentration used in the assays was 0.4% in a final volume per well of 200 μL. The cultures were initiated with 1.0 × 10^6 cells/ml and maintained at 26 °C for 72 h. Inhibition of parasitic growth was determined by cell viability indicator, resazurin [23], with excitation λ = 560 nm and emission λ = 590 nm or the number of parasites was then counted in a Neubauer chamber (experiments with L. braziliensis).

[7] = tested on: intracellular amastigotes of L. braziliensis; assay: Antiamastigote test, L. braziliensis in golden hamster macrophages; format: cell-based; settings: for L. braziliensis SI (Selective Index): CC50 in Macrophages/IC50 in intracellular amastigotes; for IC50: Leishmania braziliensis, Peritoneal macrophage, intracellular amastigotes in golden hamster peritoneal macrophages, 72 h, infection index, Mean ± SEM, read-out: L. braziliensis Amastigote IC50
Method: Macrophages of golden hamsters were used in assays against intracellular amastigotes of L. braziliensis due to the natural resistance of mice. Resident macrophages were obtained from the peritoneal cells of golden hamsters after a peritoneal injection of 10 mL of Dulbecco’s Modified Eagle’s medium (DMEM) (Sigma-Aldrich). The peritoneal macrophages were plated onto glass coverslips placed within the wells of a 24-well culture plate and incubated at 37 °C in 5% CO2 for 1 h. After removing the nonadherent cells, the monolayers were infected with stationary-phase L. braziliensis promastigotes at a 5:1 parasite/macrophage ratio for 4 h. The infected macrophages were washed and incubated with several pterocarpanquinone concentrations (0-25 μM) for 72 h. The monolayers were then stained with Giemsa, and at least 100 infected macrophages per sample were counted under optical microscopy.
as §3

[8] = Macrophage toxicity test (resazurin); format: cell-based, Swiss mice; settings: mouse; peritoneal macrophages of Swiss mice, 72 h, resazurin, Mean ± SEM; read-out: Murine Macrophage CC50
Method: To evaluate the toxicity of pterocarpanquinones 2a-f, peritoneal macrophages of Swiss mice (2 × 10^6/mL) were incubated with pterocarpanquinones (1.25–100 μM) for 72 h at 37 °C/5% CO2. Viability was evaluated with resazurin assay as described for the antipromastigote test. The 50% cytotoxicity concentration (CC50) was determined by nonlinear regression analysis in the software GraphPad Prism 5.

[9] = tested on: promastigotes of L. infantum; assay: Measurement of reactive oxygen species (H2DCFDA); format: cell-based, Leishmania infantum; settings: 1.25–5.0 μM
Method: Intracellular ROS levels were measured in treated and untreated cells as described previously. Briefly, 1 × 10^7 promastigotes/mL of L. infantum were incubated in Schneider’s insect medium supplemented with 20% HIFCS at 26 °C with concentrations of pterocarpanquinones 2a-f ranging from 0 to 5 μM in the presence of 20 μM H2DCFDA (Molecular Probes, Eugene, OR, USA). The fluorescence was monitored at 1 h intervals for 4 h using 485 and 530 nm as excitation and emission wavelengths, respectively, using the spectrofluorometer Spectra Max Gemini XPS (Molecular Devices, Silicon Valley, CA, USA). Antimycin A 10 μM was used as positive control.

[10] = 1.25 μM, 4 h, negative = depolarization
[11] = 2.5 μM, 4 h, negative = depolarization

Row | Compound | IC50 [2] [µM] | L. amazonensis SI (Selective Index) [3] | IC50 [3] [µM] | IC50 ([4]; 72 h) [µM] | IC50 [5] [µM] | Δѱm index of variation (IV) [1, 10] | Δѱm index of variation (IV) [1, 11] | IC50 [6] [µM] | L. braziliensis SI (Selective Index) [7] | IC50 [7] [µM] | L. infantum SI (Selective Index) [4] | CC50 at 72 h [8] [µM] | further results
1 | N#CC(C#N)=NNc1ccc(OC(F)(F)F)cc1 [FCCP, Carbonyl cyanide-p-Trifluoromethoxyphenylhydrazone, reference compound] | – | – | – | – | – | – | – | – | – | – | – | – | Δѱm index of variation (IV) ([1]; 20 μM (positive control)): −0.727 ± 0.01
2 | COc1ccc2c(c1)[C@H]1OC3=C(C(=O)c4ccccc4C3=O)[C@H]1CC2 (relative stereo) [LQB 475 (2f)] | 1.4 ± 0.7 | 23.76 | 2.1 ± 0.4 | > 40 | 10.5 ± 1.01 | −0.668 ± 0.01 | −0.707 ± 0.01 | 0.4 ± 0.06 | 5.53 | 9.02 ± 1.64 | – | – | effect on ΔΨm (in words) ([1]; 4 h, rhodamine 123, flow cytometry): greater depolarization
3 | N=C(N)c1ccc(OCCCCCOc2ccc(C(=N)N)cc2)cc1 [Pentamidine, reference compound] | 5.7 ± 0.12 | 4.47 | 1.9 ± 0.1 | 0.4 ± 0.2 | 13 ± 0.04 | – | – | 4.8 ± 0.09 | 1.1 | 7.7 ± 2.4 | 21.25 | 8.5 ± 1.25 | –
4 | O=C1C2=C(C(=O)c3ccccc31)[C@H]1COc3ccccc3[C@H]1O2 [LQB 182 (2b)] | 1 ± 0.3 | 19.8 | 0.85 ± 0.02 | 3.6 ± 0.9 | 11 ± 1.25 | −0.397 ± 0.07 | −0.402 ± 0.04 | 1.08 ± 0.2 | 2.15 | 7.84 ± 2.46 | 4.69 | 16.9 ± 1.2 | improvement of activity, 2b in comparison to 1 ([2]; promastigotes of L. infantum): ~4 times; improvement of activity, 2b in comparison to 1 ([3]; amastigotes of L. amazonensis): about 1.6 times; activity against L. infantum amastigotes (in words) ([4]; intracellular amastigotes, 72 h): the only one active; decrease in antileishmanial activity, 2b in comparison to 1 ([5]; promastigotes of L. braziliensis): 3.2 times; activity relative to deoxy derivative 2a ([5]; promastigotes of L. braziliensis, listed as 2b): approximately twice as active; also recorded: approximately two times more active; improvement of activity, 2b in comparison to 1 ([6]; promastigotes of L. amazonensis): about 1.6 times; ROS production, dependence on concentration ([9]; 4 h): increased ROS generation dependent on compound concentration; Early ROS production after 4 h of treatment ([9]; compared with control, listed as 2b): induction of increased ROS production
